Results from the NIST ThermoML archive (doi:10.1016/j.fluid.2005.03.032).
Numbers after ± are expanded uncertainties.

Experiment: xn = mol fraction of the nth substance listed
Conditions: 310.95 K; for viscosity: Capillary tube (Ostwald / Ubbelohde) method; for mass density: Vibrating tube method

CCCC [butane] + C
Gas, x2 = 0.736
Conditions	mass density [kg/m3]	viscosity [mPa·s]
13790 kPa	265 ± 2	0.0305 ± 0.0019
20680 kPa	329 ± 2	0.0406 ± 0.0026

C [methane] + CCCCCCCCCC
Conditions	viscosity [mPa·s]
34610 kPa, Gas, x1 = 0.9514	0.0386 ± 0.0025
34610 kPa, Liquid, x1 = 0.8064	0.12 ± 0.005
35160 kPa, Gas, x1 = 0.9514	0.0396 ± 0.0025
35160 kPa, Liquid, x1 = 0.8064	0.12 ± 0.005
35850 kPa, Gas, x1 = 0.9514	0.0403 ± 0.0026
35850 kPa, Liquid, x1 = 0.8064	0.121 ± 0.005
36230 kPa, Liquid, x1 = 0.8609	0.105 ± 0.005
36300 kPa, Liquid, x1 = 0.8609	0.102 ± 0.005
36370 kPa, Liquid, x1 = 0.8609	0.1 ± 0.004
36540 kPa, Gas, x1 = 0.9514	0.041 ± 0.0026
36540 kPa, Liquid, x1 = 0.8064	0.122 ± 0.005
36540 kPa, Liquid, x1 = 0.8609	0.096 ± 0.004
36890 kPa, Liquid, x1 = 0.8609	0.095 ± 0.004
37230 kPa, Gas, x1 = 0.9514	0.0416 ± 0.0027
37230 kPa, Liquid, x1 = 0.8064	0.123 ± 0.005
37230 kPa, Liquid, x1 = 0.8609	0.095 ± 0.004
37580 kPa, Liquid, x1 = 0.8609	0.095 ± 0.004
37920 kPa, Gas, x1 = 0.9514	0.042 ± 0.0027
37920 kPa, Liquid, x1 = 0.8064	0.124 ± 0.005
37920 kPa, Liquid, x1 = 0.8609	0.096 ± 0.004
